Source: US7262212B2, “2,3-dihydro-6-nitroimidazo[2,1-b]oxazoles” (Otsuka Pharmaceutical Co., Ltd., priority 2002, dated 2007)

| Compound | melting point |
| --- | --- |
| CC1(COc2ccc(C3CCN(Cc4ccc(OC(F)(F)F)cc4)CC3)cc2)Cn2cc([N+](=O)[O-])nc2O1 (centres unmarked) | 160.6 to 161.1 °C |
| O=C(Oc1ccccc1)N1CCC2(CC1)Cn1cc([N+](=O)[O-])nc1O2 | 242 to 244 °C |
| CC(C)(C)OC(=O)c1ccc(NC(=O)N2CCC3(CC2)Cn2cc([N+](=O)[O-])nc2O3)cc1 | > 300 °C |
| CC(C)(C)OC(=O)N1CCN(C2CCN(C[C@@]3(C)Cn4cc([N+](=O)[O-])nc4O3)CC2)CC1 | 184 to 185 °C |
| CC1(COCc2ccc(Oc3ccc(OC(F)(F)F)cc3)cc2)Cn2cc([N+](=O)[O-])nc2O1 (centres unmarked) | 107.9 to 109.3 °C |
| C[C@]1(COc2ccc(N3CCN(C(=O)OCc4cc5cc(Cl)ccc5o4)CC3)cc2)Cn2cc([N+](=O)[O-])nc2O1 | 195 to 197 °C |
| C[C@]1(COc2ccc(C3=CCN(C(=O)OCc4ccc(OC(F)(F)F)cc4)CC3)cc2)Cn2cc([N+](=O)[O-])nc2O1 | 174.3 to 174.8 °C |
| CCOC(=O)N1CCN(C(=O)c2ccc(OC[C@@]3(C)Cn4cc([N+](=O)[O-])nc4O3)cc2)CC1 | 132 to 135 °C |
| CN(CCOc1ccc(OC(F)(F)F)cc1)C[C@@]1(C)Cn2cc([N+](=O)[O-])nc2O1 | 112.5 to 115 °C |
| C[C@]1(CN(CCOc2ccc(OC(F)(F)F)cc2)Cc2ccccc2)Cn2cc([N+](=O)[O-])nc2O1 | 96.5 to 97 °C |
| COc1ccc(CN(C)C[C@@]2(C)Cn3cc([N+](=O)[O-])nc3O2)cc1 | 144 to 147 °C |
| CN(C[C@@]1(C)Cn2cc([N+](=O)[O-])nc2O1)c1ccc(Cl)cc1 | 174 to 175 °C |
| CC1(CNC(=O)OCc2ccc(F)cc2)Cn2cc([N+](=O)[O-])nc2O1 (centres unmarked) | 200.4 to 202.1 °C |
| CN(CC1(C)Cn2cc([N+](=O)[O-])nc2O1)C(=O)OCc1ccc(F)cc1 (centres unmarked) | 168.9 to 169.9 °C |
| CNC(C1CCN(C(=O)OC(C)(C)C)CC1)[C@]1(C)Cn2cc([N+](=O)[O-])nc2O1 (some centres unmarked) | 138.5 to 140.3 °C |
| CC(C)(C)OC(=O)NC1CCN(C[C@@]2(C)Cn3cc([N+](=O)[O-])nc3O2)CC1 | 158.5 to 160.7 °C |
| CC(C)(C)OC(=O)N1CCN(CCCC2(C)Cn3cc([N+](=O)[O-])nc3O2)CC1 (centres unmarked) | 166 to 167 °C |
| CC1(CCCN2CCN(Cc3ccc(-c4ccccc4)cc3)CC2)Cn2cc([N+](=O)[O-])nc2O1 (centres unmarked) | 176 to 178 °C |
| CC1(CN2CCN(C(=O)Cc3ccc(Cl)c(Cl)c3)CC2)Cn2cc([N+](=O)[O-])nc2O1 (centres unmarked) | 189 to 191 °C |

| Compound | melting point |
| --- | --- |
| CC1(CN2CCN(CCCn3c(=O)oc4ccccc43)CC2)Cn2cc([N+](=O)[O-])nc2O1 (centres unmarked) | 123 to 126 °C |
| CC1(CN2CCN(C(=O)OCc3ccccc3)CC2)Cn2cc([N+](=O)[O-])nc2O1.Cl (centres unmarked) | 130.5 to 132.1 °C |
| CC(C)NC(=O)N1CCN(CC2(C)Cn3cc([N+](=O)[O-])nc3O2)CC1 (centres unmarked) | 175 to 176.3 °C |
| C[C@]1(CO)Cn2cc([N+](=O)[O-])nc2O1 | 162 to 163 °C |
| Cc1nc(-c2ccc(Cl)cc2)sc1CN1CCN(C[C@@]2(C)Cn3cc([N+](=O)[O-])nc3O2)CC1 | 174.3 to 175.5 °C |
| C[C@]1(CN2CCN(S(=O)(=O)CCCCc3ccc(Cl)cc3)CC2)Cn2cc([N+](=O)[O-])nc2O1 | 176 to 177 °C |
| C[C@]1(COc2nc3ccccc3o2)Cn2cc([N+](=O)[O-])nc2O1 | 232 to 233 °C |
| CC1(Cn2nc(-c3ccc(-c4ccccc4)cc3)oc2=O)Cn2cc([N+](=O)[O-])nc2O1 (centres unmarked) | 248 to 249 °C |
| CC1(Cn2nc(CCc3ccc(Cl)cc3)oc2=O)Cn2cc([N+](=O)[O-])nc2O1 (centres unmarked) | 139 to 140 °C |
| Cn1c(=O)n(CC2(C)Cn3cc([N+](=O)[O-])nc3O2)c2ccc(Cl)cc21 (centres unmarked) | 261.3 to 263.3 °C |
| CC(C)n1c(=O)n(CC2(C)Cn3cc([N+](=O)[O-])nc3O2)c2cc(Cl)ccc21 (centres unmarked) | 240.5 to 244.8 °C |
| CC1(Cn2c(=O)n(C3CCN(C(=O)OCc4ccccc4)CC3)c3ccccc32)Cn2cc([N+](=O)[O-])nc2O1 (centres unmarked) | 181.7 to 184.6 °C |
| CC1(CN2CCN(Cc3ccc(Br)cc3)C2=O)Cn2cc([N+](=O)[O-])nc2O1 (centres unmarked) | 205.7 to 208.1 °C |
| CC1(CCc2nnnn2-c2ccc(Cl)cc2)Cn2cc([N+](=O)[O-])nc2O1 (centres unmarked) | 198 to 200 °C |
| C[C@]1(CN2CCc3ccccc3C2)Cn2cc([N+](=O)[O-])nc2O1 | 153 to 155.3 °C |
| O=C(NCc1ccccc1)N1CCC2(CC1)Cn1cc([N+](=O)[O-])nc1O2 | 244 to 247 °C (dec.) |
| CN(C)c1ccc(NC(=O)N2CCC3(CC2)Cn2cc([N+](=O)[O-])nc2O3)cc1 | 244 to 247 °C (dec.) |
| CCN(CC)C(=O)OC[C@@]1(C)Cn2cc([N+](=O)[O-])nc2O1 | 196 to 197 °C |
| C[C@]1(COC(=O)N(c2ccc(Cl)cc2)c2ccc(Cl)cc2)Cn2cc([N+](=O)[O-])nc2O1 | 200 to 201 °C |

More lines, now with the values ahead:

| melting point | Compound |
| --- | --- |
| 168 to 169 °C | C[C@]1(COC(=O)N2CCN(c3ccc(OC(F)(F)F)cc3)CC2)Cn2cc([N+](=O)[O-])nc2O1 |
| 161 to 163 °C | C[C@]1(COC(=O)N2CCN(Cc3ccc(Cl)cc3)CC2)Cn2cc([N+](=O)[O-])nc2O1 |
| 176 to 178 °C | C[C@]1(COC(=O)N2CCN(N=Cc3ccc(C(F)(F)F)cc3)CC2)Cn2cc([N+](=O)[O-])nc2O1 |
| 137 to 140 °C | C[C@]1(COC(=O)N2CCC(Nc3ccc(C(F)(F)F)cc3)CC2)Cn2cc([N+](=O)[O-])nc2O1 |
| 165 to 166 °C | C[C@]1(COC(=O)N2CCC(Oc3ccc(C(F)(F)F)cc3)CC2)Cn2cc([N+](=O)[O-])nc2O1 |
| 171.8 to 173.1 °C | CC1(COc2ccc(N3CCN(Cc4ccc(C(F)(F)F)cc4)CC3)cc2)Cn2cc([N+](=O)[O-])nc2O1 (centres unmarked) |
| 176.5 to 178 °C | C[C@]1(COc2ccc(OC(F)(F)F)cc2)Cn2cc([N+](=O)[O-])nc2O1 |
| 262.5 to 265 °C | C[C@]1(COc2ccc(N3CCN(c4ccc(OC(F)(F)F)cc4)CC3)cc2)Cn2cc([N+](=O)[O-])nc2O1 |
| 193 to 194 °C | C[C@]1(CN2CCC(N3CCN(c4ccc(OC(F)(F)F)cc4)CC3)CC2)Cn2cc([N+](=O)[O-])nc2O1 |
| 148 to 149 °C | C[C@]1(CN2CCC(N3CCN(Cc4ccc(Cl)cc4)CC3)CC2)Cn2cc([N+](=O)[O-])nc2O1 |
| 133 to 134 °C | C[C@]1(CN2CCN(C3CCN(C(=O)c4ccc(OC(F)(F)F)cc4)CC3)CC2)Cn2cc([N+](=O)[O-])nc2O1 |
| 174 to 175 °C | C[C@]1(CN2CCC(N3CCN(CC=Cc4ccc(OC(F)(F)F)cc4)CC3)CC2)Cn2cc([N+](=O)[O-])nc2O1 |
| 235.9 to 236.8 °C (dec.) | O=[N+]([O-])c1cn2c(n1)OC1(CCN(c3ccc(OC(F)(F)F)cc3)CC1)C2 |
| 210.5 to 212 °C | CCOC(=O)N1CCN(c2ccc(OC[C@@]3(C)Cn4cc([N+](=O)[O-])nc4O3)cc2)CC1 |
| 157 to 160 °C | O=[N+]([O-])c1cn2c(n1)O[C@@H](COc1ccc(N3CCC(Oc4ccc(OC(F)(F)F)cc4)CC3)cc1)C2 |
| 173.2 to 177.3 °C | O=[N+]([O-])c1cn2c(n1)OC(COc1ccc(N3CCC(Oc4ccc(OC(F)(F)F)cc4)CC3)cc1)C2 (centres unmarked) |
| 155 to 156 °C | C[C@]1(COc2ccc(C(=O)N3CCN(Cc4ccc(OC(F)(F)F)cc4)CC3)cc2)Cn2cc([N+](=O)[O-])nc2O1 |
| 102 to 104.5 °C | CN(CCN1CCN(Cc2ccc(C(F)(F)F)cc2)CC1)C[C@@]1(C)Cn2cc([N+](=O)[O-])nc2O1 |
| 124.5 to 128.1 °C | CN(CC1Cn2cc([N+](=O)[O-])nc2O1)C(=O)OCc1ccc(F)cc1 (centres unmarked) |
| 149 to 152 °C | CNC(C1CCN(c2ccc(C#N)cc2)CC1)[C@]1(C)Cn2cc([N+](=O)[O-])nc2O1 (some centres unmarked) |

| melting point | Compound |
| --- | --- |
| 117 to 119 °C | CC1(CN2CCC(Oc3ccc(OC(F)(F)F)cc3)CC2)Cn2cc([N+](=O)[O-])nc2O1 (centres unmarked) |
| 107.5 to 109 °C | C[C@]1(CN2CCC(Nc3ccc(OC(F)(F)F)cc3)CC2)Cn2cc([N+](=O)[O-])nc2O1 |
| 185 to 188 °C (dec.) | CC(C)(C)OC(=O)N1CCN(CC2Cn3cc([N+](=O)[O-])nc3O2)CC1 (centres unmarked) |
| 120 to 122 °C | O=C(OCc1ccc(C(F)(F)F)cc1)N1CCN(CC2Cn3cc([N+](=O)[O-])nc3O2)CC1 (centres unmarked) |
| 228 to 229.5 °C | CC1(CN2CCN(c3nc4ccccc4o3)CC2)Cn2cc([N+](=O)[O-])nc2O1 (centres unmarked) |
| 206 to 209 °C (dec.) | O=[N+]([O-])c1cn2c(n1)OC(CN1CCN(c3nc4ccccc4o3)CC1)C2 (centres unmarked) |
| 145 to 147.7 °C | C[C@]1(CN2CCN(c3cccnc3)CC2)Cn2cc([N+](=O)[O-])nc2O1 |
| 175.8 to 176.6 °C | O=[N+]([O-])c1cn2c(n1)O[C@@H](CN1CCN(c3ccc(C(F)(F)F)cc3)CC1)C2 |
| 139.5 to 140.5 °C | C[C@]1(CN2CCN(C(=O)OCc3ccc(OC(F)(F)F)cc3)CC2)Cn2cc([N+](=O)[O-])nc2O1 |
| 149 to 150 °C | O=[N+]([O-])c1cn2c(n1)O[C@@H](CN1CCN(Cc3ccc(C(F)(F)F)cc3)CC1)C2 |
| 110 to 112 °C | C[C@]1(CN2CCN(Cc3ccc(C(F)(F)F)cc3)CC2)Cn2cc([N+](=O)[O-])nc2O1 |
| 175.2 to 175.9 °C | CC1(CN2CCN(C(=O)Cc3ccccc3)CC2)Cn2cc([N+](=O)[O-])nc2O1 (centres unmarked) |
| 150 to 151 °C | C[C@]1(CN2CCN(S(=O)(=O)CCCc3ccc(Cl)cc3)CC2)Cn2cc([N+](=O)[O-])nc2O1 |
| 182 to 184 °C | CC1(CN2CCN(S(=O)(=O)CCc3ccc(Cl)cc3)CC2)Cn2cc([N+](=O)[O-])nc2O1 (centres unmarked) |
| 167 to 168 °C | COc1ccc(NC(=O)N2CCN(CC3(C)Cn4cc([N+](=O)[O-])nc4O3)CC2)cc1 (centres unmarked) |
| 202 to 203 °C (dec.) | Cc1ccc(NC(=O)N2CCN(CC3(C)Cn4cc([N+](=O)[O-])nc4O3)CC2)cc1 (centres unmarked) |
| 100.4 to 102.4 °C | CN(C(=O)N1CCN(C[C@@]2(C)Cn3cc([N+](=O)[O-])nc3O2)CC1)c1ccc(C(F)(F)F)cc1 |
| 221 to 223 °C | O=C(OCc1ccc(C(F)(F)F)cc1)N1CCN(C(=O)N2CCC3(CC2)Cn2cc([N+](=O)[O-])nc2O3)CC1 |
| 137 to 139 °C | O=C(CN1CCN(C(=O)OCc2ccc(OC(F)(F)F)cc2)CC1)N1CCC2(CC1)Cn1cc([N+](=O)[O-])nc1O2 |
